Data from PMC11467302, “Discovery of a potent, Kv7.3-selective potassium channel opener from a Polynesian traditional botanical anticonvulsant” (Communications Chemistry, 2024).

Key:
Format in all cases: cell-based
Kv7.3 [1] = target: T1, Kv7.3 (Homo sapiens, UniProt O43525); experiment: two-electrode voltage clamp at […], shift of V0.5act
T1 construct: gene KCNQ3; Kv7.2/3 heteromer expressed in Xenopus oocytes; with Kv7.2 (KCNQ2)

Kv7.3* = target: T2, Kv7.3* (Homo sapiens, UniProt O43525, A315T); experiment: two-electrode voltage clamp, shift of V0.5act, dose response
T2 construct: gene KCNQ3; Kv7.3* homomer expressed in Xenopus oocytes
T2 sequence (O43525 1-872 A315T): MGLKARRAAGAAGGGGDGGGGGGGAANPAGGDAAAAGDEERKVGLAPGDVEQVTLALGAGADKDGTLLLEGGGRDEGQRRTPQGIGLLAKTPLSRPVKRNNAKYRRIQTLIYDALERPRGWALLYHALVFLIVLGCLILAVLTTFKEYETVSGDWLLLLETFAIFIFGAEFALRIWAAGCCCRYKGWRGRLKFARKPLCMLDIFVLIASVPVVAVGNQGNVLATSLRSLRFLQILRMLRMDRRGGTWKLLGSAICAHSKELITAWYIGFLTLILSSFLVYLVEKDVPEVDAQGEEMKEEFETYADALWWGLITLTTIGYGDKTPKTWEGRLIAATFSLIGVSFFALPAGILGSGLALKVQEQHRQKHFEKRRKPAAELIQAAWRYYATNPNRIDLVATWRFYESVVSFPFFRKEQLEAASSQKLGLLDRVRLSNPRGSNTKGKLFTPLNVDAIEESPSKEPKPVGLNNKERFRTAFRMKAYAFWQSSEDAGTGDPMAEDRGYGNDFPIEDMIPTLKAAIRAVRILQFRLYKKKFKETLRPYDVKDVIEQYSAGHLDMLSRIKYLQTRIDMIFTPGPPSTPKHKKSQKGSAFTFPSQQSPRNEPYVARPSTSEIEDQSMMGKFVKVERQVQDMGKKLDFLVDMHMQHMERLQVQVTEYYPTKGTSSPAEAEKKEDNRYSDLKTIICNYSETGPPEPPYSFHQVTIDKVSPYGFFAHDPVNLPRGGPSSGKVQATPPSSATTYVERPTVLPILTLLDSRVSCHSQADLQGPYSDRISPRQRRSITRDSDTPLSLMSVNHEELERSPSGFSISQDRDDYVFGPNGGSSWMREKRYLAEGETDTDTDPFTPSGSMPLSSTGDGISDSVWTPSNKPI

Kv7.3 [2] = target: T1, Kv7.3; experiment: as above

T1 sequence (O43525 whole entry): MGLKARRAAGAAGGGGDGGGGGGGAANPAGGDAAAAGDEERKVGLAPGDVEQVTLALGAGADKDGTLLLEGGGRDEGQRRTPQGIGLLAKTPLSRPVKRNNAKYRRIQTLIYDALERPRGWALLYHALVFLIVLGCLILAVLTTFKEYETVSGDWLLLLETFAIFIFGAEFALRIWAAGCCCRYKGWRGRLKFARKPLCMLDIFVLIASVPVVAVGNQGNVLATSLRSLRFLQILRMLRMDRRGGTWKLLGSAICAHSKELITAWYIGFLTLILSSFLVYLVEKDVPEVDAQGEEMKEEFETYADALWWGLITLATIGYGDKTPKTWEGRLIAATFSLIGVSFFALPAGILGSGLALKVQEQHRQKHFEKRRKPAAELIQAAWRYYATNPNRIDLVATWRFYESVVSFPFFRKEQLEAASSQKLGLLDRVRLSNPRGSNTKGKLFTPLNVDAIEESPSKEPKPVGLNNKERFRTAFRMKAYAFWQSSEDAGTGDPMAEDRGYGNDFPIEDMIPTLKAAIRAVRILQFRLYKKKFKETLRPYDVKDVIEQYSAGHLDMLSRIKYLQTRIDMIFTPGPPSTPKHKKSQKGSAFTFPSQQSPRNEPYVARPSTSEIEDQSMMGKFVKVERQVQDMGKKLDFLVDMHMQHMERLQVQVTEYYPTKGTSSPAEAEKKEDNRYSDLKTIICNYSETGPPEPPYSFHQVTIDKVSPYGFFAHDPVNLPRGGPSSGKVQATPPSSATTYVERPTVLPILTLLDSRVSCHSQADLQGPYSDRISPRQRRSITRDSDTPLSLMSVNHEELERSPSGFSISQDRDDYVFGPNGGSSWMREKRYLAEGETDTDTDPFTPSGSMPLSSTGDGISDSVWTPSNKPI
T1 sequence (O43526 whole entry partner): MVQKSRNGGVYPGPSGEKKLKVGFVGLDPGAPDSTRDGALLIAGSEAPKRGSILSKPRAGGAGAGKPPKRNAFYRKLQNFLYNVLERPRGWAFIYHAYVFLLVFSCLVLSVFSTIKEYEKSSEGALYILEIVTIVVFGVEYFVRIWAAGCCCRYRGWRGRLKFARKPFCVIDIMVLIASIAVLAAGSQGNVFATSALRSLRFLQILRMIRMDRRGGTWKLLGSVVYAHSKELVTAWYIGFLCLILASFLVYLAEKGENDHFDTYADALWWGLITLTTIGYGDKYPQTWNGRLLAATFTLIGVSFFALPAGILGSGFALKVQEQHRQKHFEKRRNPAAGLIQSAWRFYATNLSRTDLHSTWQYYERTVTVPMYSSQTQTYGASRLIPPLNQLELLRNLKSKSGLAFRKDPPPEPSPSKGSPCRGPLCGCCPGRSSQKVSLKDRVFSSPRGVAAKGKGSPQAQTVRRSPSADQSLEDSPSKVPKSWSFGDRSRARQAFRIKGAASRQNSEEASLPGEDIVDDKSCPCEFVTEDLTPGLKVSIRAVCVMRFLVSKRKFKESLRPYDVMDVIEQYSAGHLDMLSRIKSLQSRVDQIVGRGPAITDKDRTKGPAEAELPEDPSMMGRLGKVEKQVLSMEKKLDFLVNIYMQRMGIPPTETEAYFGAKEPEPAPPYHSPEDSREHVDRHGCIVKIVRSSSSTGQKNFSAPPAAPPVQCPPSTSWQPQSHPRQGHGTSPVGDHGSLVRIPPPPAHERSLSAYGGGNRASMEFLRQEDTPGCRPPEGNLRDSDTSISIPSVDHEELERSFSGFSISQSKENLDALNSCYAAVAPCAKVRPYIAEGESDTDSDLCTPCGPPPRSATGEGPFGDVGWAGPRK

SMILES	two-electrode voltage clamp at 100 μM, shift of V0.5act (Kv7.3 [1])	EC50 (Kv7.3*)	EC50 (Kv7.3 [2])
O=S(=O)(O)c1cc(O)ccc1O [calcium dobesilate]	one analog of GA did exhibit similar efficacy to that of GA—the sulfonic acid, calcium dobesilate	–	–
O=C(O)c1cc(O)ccc1O [GA, gentisic acid]	–	0.79 nM	2.8 nM
